Source: paper PMC10877925 (Cell Communication and Signaling : CCS, 2024)

Experiments:
PfSpdsyn = molecular target: T1, PfSpdsyn (Plasmodium falciparum, UniProt Q8II73); test: bio-layer interferometry; assay type: binding
T1 construct: gene PF3D7_1129000; 29-residue N-terminal deletion, pET28a vector, E. coli BL21; immobilised on NTA biosensor for BLI
T1 sequence (Q8II73 30-321): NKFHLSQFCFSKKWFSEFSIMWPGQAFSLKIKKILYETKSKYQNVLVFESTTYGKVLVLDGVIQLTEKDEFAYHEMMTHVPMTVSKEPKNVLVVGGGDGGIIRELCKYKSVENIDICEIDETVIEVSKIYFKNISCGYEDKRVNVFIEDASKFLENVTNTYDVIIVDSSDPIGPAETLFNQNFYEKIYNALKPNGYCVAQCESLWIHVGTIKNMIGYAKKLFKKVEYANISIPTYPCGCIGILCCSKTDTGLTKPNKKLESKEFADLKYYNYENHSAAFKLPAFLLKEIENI

PfEGF1-α = molecular target: T2, PfEGF1-α (Plasmodium falciparum, UniProt Q8I0P6); test: bio-layer interferometry; assay type: binding
T2 construct: gene PF3D7_1357000; recombinant, pET28a vector, E. coli BL21; immobilised on NTA biosensor for BLI
T2 sequence (Q8I0P6 1-443): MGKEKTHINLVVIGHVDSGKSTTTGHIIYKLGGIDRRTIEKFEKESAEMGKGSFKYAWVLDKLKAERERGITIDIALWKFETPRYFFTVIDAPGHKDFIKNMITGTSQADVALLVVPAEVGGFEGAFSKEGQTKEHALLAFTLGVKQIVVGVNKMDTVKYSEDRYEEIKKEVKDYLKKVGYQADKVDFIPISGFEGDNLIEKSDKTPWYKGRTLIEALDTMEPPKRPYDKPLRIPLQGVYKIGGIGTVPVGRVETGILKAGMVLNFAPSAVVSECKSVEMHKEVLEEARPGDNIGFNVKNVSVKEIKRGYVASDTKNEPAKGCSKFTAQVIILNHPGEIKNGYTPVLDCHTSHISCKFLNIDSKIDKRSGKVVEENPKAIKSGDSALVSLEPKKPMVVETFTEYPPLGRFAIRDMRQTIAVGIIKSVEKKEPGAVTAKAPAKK

SMILES: CC1=C(O)C(=O)C=C2C1=CC=C1[C@@]2(C)CC[C@@]2(C)[C@@H]3C[C@](C)(C(=O)O)CC[C@]3(C)CC[C@]12C [Celastrol]
- Kd (PfSpdsyn): 67.4 µM
- Kd (PfEGF1-α): 243 µM
